Experiments:
[1] = Cytotoxicity against MT2 cells; assay type: cell-based; details: human
[2] = test system: Human immunodeficiency virus 1; experiment: Inhibition of virus-induced cytopathic effect in wild type HIV 3a infected MT2 cells after 5 days; assay type: functional, organism-based; details: Human immunodeficiency virus 1, 3a, MT2, 120 h
[3] = biological target: Human immunodeficiency virus type 1 reverse transcriptase (Human immunodeficiency virus 1, UniProt Q72547); experiment: Inhibition of HIV1 reverse transcriptase
[4] = test system: Human immunodeficiency virus 1; experiment: Antiviral activity against HIV with reverse transcriptase M184V mutation assessed as reduction of potency relative to wild type; assay type: functional
[5] = test system: Human immunodeficiency virus 1; experiment: Antiviral activity against HIV1 with reverse transcriptase 6TAM mutation assessed as reduction of potency relative to wild type; assay type: functional
[6] = test system: Human immunodeficiency virus 1; experiment: Antiviral activity against HIV1 with reverse transcriptase K65R mutation assessed as reduction of potency relative to wild type; assay type: functional

| Compound | CC50 [1] [µM] | EC50 [2] [µM] | IC50 [3] [µM] | Fold change [4] | Fold change [5] | Fold change [6] |
| --- | --- | --- | --- | --- | --- | --- |
| Cc1cn([C@H]2CC[C@@H](OCP(=O)(O)O)O2)c(=O)[nH]c1=O | > 500 | > 200 | 5.4 |  |  |  |
| Cc1cn([C@H]2C=C[C@@H](COP(=O)(O)OP(=O)(O)OP(=O)(O)O)O2)c(=O)[nH]c1=O [STAVUDINE TRIPHOSPHATE] | > 500 | 26 | 0.39 | 1.1 | 13 | 5.2 |
| Cc1cn([C@H]2CC[C@@H](OCP(=O)(OCOC(=O)OC(C)C)OCOC(=O)OC(C)C)O2)c(=O)[nH]c1=O | > 50 | 1.3 |  |  |  |  |
| C[C@H](Cn1cnc2c(N)ncnc21)OCP(=O)(O)O [TENOFOVIR ANHYDROUS] | > 200 |  | 0.38 | 0.7 | 8.8 | 4.3 |
| Cc1cn([C@H]2C=C[C@@H](OCP(=O)(OCOC(=O)OC(C)C)OCOC(=O)OC(C)C)O2)c(=O)[nH]c1=O | 10 | 0.91 |  |  |  |  |
| Cc1cn([C@H]2C[C@H](N=[N+]=[N-])[C@@H](CO)O2)c(=O)[nH]c1=O [ZIDOVUDINE] | > 200 |  |  |  |  |  |
| Cc1cn([C@H]2CC[C@@H](CO)O2)c(=O)[nH]c1=O |  | > 200 | 0.12 |  |  |  |
| Cc1cn([C@H]2C[C@H](N=[N+]=[N-])[C@@H](OCP(=O)(O)O)O2)c(=O)[nH]c1=O |  | > 200 |  |  |  |  |
| Cc1cn([C@H]2C=C[C@@H](OCP(=O)(O)O)O2)c(=O)[nH]c1=O | > 500 | 26 | 0.39 | 1.1 | 13 | 5.2 |
| CC(C)OC(=O)OCOP(=O)(CO[C@H](C)Cn1cnc2c(N)ncnc21)OCOC(=O)OC(C)C.O=C(O)/C=C/C(=O)O [TENOFOVIR DISOPROXIL FUMARATE] | > 50 | 0.015 |  |  | 7.7 | 3.1 |
| Cc1cn([C@H]2C=C[C@@H](CO)O2)c(=O)[nH]c1=O [STAVUDINE] | 286 | 4.8 | 0.06 | 1.2 | 5.5 | 2.3 |
| Cc1cn([C@H]2CC[C@@H](OCP(=O)(O)O)O2)c(=O)[nH]c1=O.O=P(O)(O)OP(=O)(O)O | > 500 | > 200 | 5.4 |  |  |  |

From ChEMBL document CHEMBL1143735, “Synthesis, anti-HIV activity, and resistance profile of thymidine phosphonomethoxy nucleosides and their bis-isopropyloxymethylcarbonyl (bisPOC) prodrugs” (Bioorg Med Chem, 2007)
